Patent US20250339409A1, “USES OF PAN BET INHIBITORS” (VYNE THERAPEUTICS INC., priority 2021, published 2025)
Several values for one entry are separate records, joined by “and”; a condition that tells them apart may be missing. Equal entries are not always repeated. Where two headings read alike, the source gives them in different places.

Key:
[1] = Chemical and physical stability of formulations (HPLC, polarized light microscopy); format: physicochemical; details: 3 m at 25° C.
Experimental: For Polarized Light Microscopy evaluation, the samples of the formulations in petrolatum are heated to 55° C. to melt most of the petrolatum crystals and make visible crystals of API. The API crystals are measured and photomicrographs are taken.
The microscopy samples of API are prepared by dispersing some (unmeasured amount) of API powder in a drop of mineral oil. The dispersion is done by a spatula. The concentration of API in mineral oil is unknown.
The stability of prepared formulations was assessed by HPLC testing of samples of two formulations, prepared with API from two different sources. […] The area % of the main peak in the samples after temperature exposure was compared to area % of the main peak in initial samples of the same batches and in the corresponding APIs. The samples exposed to stability challenge were also evaluated for presence of new peaks, not observed in API or in initial samples.

[2] = Toxicokinetics in dogs after intra-articular injection: plasma concentrations; format: in vivo, Beagle dogs; details: dog; for AUC(0-t) / Cmax / Tmax / concentration at 1 h / concentration at 2 h / concentration at 4 h / concentration at 8 h / concentration at 24 h / concentration at 336 h / concentration at 504 h / concentration at 672 h / concentration at 4 weeks: Beagle, plasma; for AUC(0-t): read-out: Plasma AUC0-672 h; for concentration at 1 h / concentration at 2 h / concentration at 4 h / concentration at 8 h / concentration at 24 h / concentration at 336 h / concentration at 504 h / concentration at 672 h / concentration at 4 weeks: other: intra-articular injection; for concentration at 1 h / concentration at 2 h / concentration at 4 h / concentration at 8 h / concentration at 24 h / concentration at 336 h / concentration at 504 h / concentration at 672 h: read-out: Plasma concentration of BETi1; for concentration at 4 weeks: read-out: plasma level at four weeks post-treatment
TRP-1 = assay: RHE vitiligo model: melanocyte localization after TRP-1 immunostaining; format: cell-based, human; details: for Mean per RHE (%): RHE1-3
Experimental: TRP-1 (tyrosinase related protein-1) is a melanocyte specific protein and a member of the tyrosinase gene family which also includes tyrosinase. It is very often used as specific marker of melanocytes. To visualize and quantify the melanocytes within the epidermis, sections of epidermis (6 μm thick) prepared from epidermis embedded in paraffin are used for TRP-1 immunostaining.
After deparaffination and re-hydration, antigen unmasking is performed by heating in citrate ph6 buffer. Samples are then saturated with goat serum, in order to avoid unspecific labelling.
Samples are incubated overnight, at 4° C., with a primary antibody raised against human TRP-1 (Abcam; Ab235447). After washing, the samples are incubated (for 30 minutes, at room temperature) with a secondary antibody anti-rabbit coupled to Alexa Fluor 488 dye (Thermo Fisher Scientific; A-11008). Samples are then incubated with DAPI or 4′,6′-diamidino-2-phenylindole (Thermo Fisher Scientific, D1306), a fluorescent molecule able of binding to the adenine and thymine bases of DNA and slides are mounted with specific medium, before taking the images. For each tissue/sample, 1 slide section is used to make 3 images. Images are taken using a Nikon Eclipse (Ni-E) photomicroscope coupled to a numerical camera (DS-Ri2). Quantification of the protein is performed with NIS-Element AR software (Nikon). The detection thresholds are firstly determined, using the most marked slices, in order to avoid saturation of detection. For each image, a region of interest (ROI) is delimited manually (including only the basal layers of epidermis which are supposed to contain the melanocytes) and its surface was measured. The software then measures the marked area within the delimited area, in number of pixels. The mean intensity of the marked surface multiplied by the “marked surface” determines the staining for the given ROI. This value is then normalized for a given surface by dividing the staining value by the surface of the ROI.
Formulations containing four doses of BETi1 the BETi1 vehicle (placebo), were evaluated in RHE TNF-α/IFN-γ vitiligo model as described in Experimental section Method G and representative images of RHE after TRP-1 staining are shown in FIG. 7A and respective quantification with and without normalization are shown in Table 19 and Table 20 and FIGS. 7B and FIG. 7C respectively. The stimulation with the cytokine cocktail (TNF-α and IFN- ? ) in accordance with Part A and B, reduced the expression of TRP-1 and thus the abundance of melanocytes in the basal layers of the RHE, confirming the melanocytorhagy. In the model, stimulated treated with the vehicle induced a significant […] of TRP-1 abundance as compared to the stimulated untreated control. Without being bound by any theory the barrier effect provided by petrolatum in the vehicle, which increases skin hydration, has some effect on retention of melanocytes in the basal layer. […] A dose response could clearly be observed with the BETi1 formulation, with a tendency to the increase for the dose of 0.1% and with the two last concentrations being not significant. The effects of the ruxolitinib cream at 1% could not be assessed given that the sections have detached from the glass slides during the immunostaining process (probably without being bound by any theory may be due to the bad structure of the epidermis).

[3] = both sexes, 7.5 mg/animal, 7.5 mg intra-articular
[4] = both sexes, 75 mg/animal, 75 mg intra-articular
[5] = both sexes, 150 mg/animal, 150 mg intra-articular
[6] = BETi1 0.001%, stimulated RHE, without normalization to ROI
[7] = BETi1 1%, stimulated RHE, with normalization to ROI
[8] = BETi1 1%, stimulated RHE, without normalization to ROI
[9] = BETi1 10.001% [sic], stimulated RHE, with normalization to ROI

## Cn1cc(-c2cccc(O)c2Oc2ccccc2)c2cc[nH]c2c1=O [BETi1]
[1]
  degradation in compositions comprising suspended BETi1: no degradation of BETi1 being observed
[2]; 7.5 mg/animal, Female, Study Day 1
  AUC(0-t): 472 ng·h/mL
[2]; 7.5 mg/animal, Female, Study Day 1, read-out: Plasma Cmax
  Cmax: 37.6 ng/mL
[2]; 7.5 mg/animal, Female, Study Day 1, read-out: Plasma Tmax
  Tmax: 1.5 h
[2]; 7.5 mg/animal, Male, Study Day 1
  AUC(0-t): 390 ng·h/mL
[2]; 7.5 mg/animal, Male, Study Day 1, read-out: Plasma Cmax
  Cmax: 32.1 ng/mL
[2]; 7.5 mg/animal, Male, Study Day 1, read-out: Plasma Tmax
  Tmax: 4 h
[2]; 75 mg/animal, Female, Study Day 1
  AUC(0-t): 3760 ng·h/mL
[2]; 75 mg/animal, Female, Study Day 1, read-out: Plasma Cmax
  Cmax: 56.6 ng/mL
[2]; 75 mg/animal, Female, Study Day 1, read-out: Plasma Tmax
  Tmax: 2 h
[2]; 75 mg/animal, Male, Study Day 1
  AUC(0-t): 3070 ng·h/mL
[2]; 75 mg/animal, Male, Study Day 1, read-out: Plasma Cmax
  Cmax: 50.2 ng/mL
[2]; 75 mg/animal, Male, Study Day 1, read-out: Plasma Tmax
  Tmax: 2 h
[2]; 150 mg/animal, Female, Study Day 1
  AUC(0-t): 5990 ng·h/mL
[2]; 150 mg/animal, Female, Study Day 1, read-out: Plasma Cmax
  Cmax: 52.9 ng/mL
[2]; 150 mg/animal, Female, Study Day 1, read-out: Plasma Tmax
  Tmax: 5 h
[2]; 150 mg/animal, Male, Study Day 1
  AUC(0-t): 3810 ng·h/mL
[2]; 150 mg/animal, Male, Study Day 1, read-out: Plasma Cmax
  Cmax: 48.8 ng/mL
[2]; 150 mg/animal, Male, Study Day 1, read-out: Plasma Tmax
  Tmax: 2 h
[2]; [3]
  concentration at 1 h: 29.6 ng/mL
  concentration at 2 h: 32.6 ng/mL
  concentration at 4 h: 26.1 ng/mL
  concentration at 8 h: 15.9 ng/mL
  concentration at 24 h: 2.02 ng/mL
  concentration at 336 h: 0 ng/mL
  concentration at 504 h: 0 ng/mL
  concentration at 672 h: 0 ng/mL
[2]; [4]
  concentration at 1 h: 49.1 ng/mL
  concentration at 2 h: 53.4 ng/mL
  concentration at 4 h: 39.4 ng/mL
  concentration at 8 h: 38.1 ng/mL
  concentration at 24 h: 13.5 ng/mL
  concentration at 336 h: 1.95 ng/mL
  concentration at 504 h: 0.835 ng/mL
  concentration at 672 h: 0.505 ng/mL
[2]; [5]
  concentration at 1 h: 42.2 ng/mL
  concentration at 2 h: 48.8 ng/mL
  concentration at 4 h: 35.8 ng/mL
  concentration at 8 h: 48.2 ng/mL
  concentration at 24 h: 20.9 ng/mL
  concentration at 336 h: 4.72 ng/mL
  concentration at 504 h: 2.19 ng/mL
  concentration at 672 h: 1.72 ng/mL
[2]; both sexes, 75 mg/animal, intra-articular, 75 mg
  concentration at 4 weeks: 2 nM
[2]; both sexes, 150 mg/animal, intra-articular, 150 mg
  concentration at 4 weeks: 5 nM
[2]; both sexes, intra-articular, calculated, read-out: Tmax, plasma (converted)
  Tmax: ~120 h
[2]; both sexes, intra-articular, read-out: Cmax, plasma
  Cmax: 50 ng/mL
[2]; intra-articular
  clearance indicated by plasma levels: rapid clearance with a reduction being seen after 4 hours
  plasma AUC lower compared to synovial levels: ~2000 ×
  plasma Cmax lower compared to synovial levels: ~1000 ×
TRP-1; [6]
  Mean per condition (%): 24%
  Mean per RHE (%): 21.6% and 27.0% and 22.1%
TRP-1; BETi1 0.01%, stimulated RHE, with normalization to ROI
  Mean per condition (%): 15%
TRP-1; BETi1 0.01%, stimulated RHE, without normalization to ROI
  Mean per condition (%): 20%
TRP-1; BETi1 0.1%, stimulated RHE, with normalization to ROI
  Mean per condition (%): 92%
TRP-1; BETi1 0.1%, stimulated RHE, without normalization to ROI
  Mean per condition (%): 120%
TRP-1; [7]
  Mean per condition (%): 149%
  Mean per RHE (%): 169% and 120% and 158%
TRP-1; [8]
  Mean per condition (%): 192%
  Mean per RHE (%): 220.8% and 151.1% and 203.4%
TRP-1; [9]
  Mean per condition (%): 17%
  Mean per RHE (%): 18% and 19% and 14%
TRP-1; BETi1 formulation at 1%, stimulated RHE
  TRP-1 in the basal layers: TRP-1 is significantly increased in the basal layers
TRP-1; Stimulated + BETi1 0.001%
  TRP-1 % staining relative to stimulated control, Mean per RHE (%): 6% and 8%
  TRP-1 % staining relative to stimulated control, Mean per condition (%): 7%
TRP-1; Stimulated + BETi1 0.01%
  TRP-1 % staining relative to stimulated control, Mean per condition (%): 30%
TRP-1; Stimulated + BETi1 0.1%
  TRP-1 % staining relative to stimulated control, Mean per condition (%): 227%
TRP-1; Stimulated + BETi1 1%
  TRP-1 % staining relative to stimulated control, Mean per condition (%): 292%
